How the values were obtained:
[1] = biological target: T1, CB1 receptors present in the brain (Mus musculus, UniProt P47746); experiment: Measurement (2): ex vivo binding of [3H]-CP55940 in the brain after intravenous administration; set-up: the CB1 receptors present in the brain in mice; from tissue; host or cells: mouse brain (after intravenous dosing); conditions: iv at 10 mg/kg, mice, read-out: % inhibition of [3H]-CP55940 binding at the level of the brain
Source text: (§1) Preferably, this percentage is less than 40%, and more preferably less than 30%.

[2] = biological target: T1, CB1 receptors present in the brain; experiment: Measurement (3): blocking of the hypothermic effect induced by CP55940; format: in vivo; set-up: [CB1 receptors present; from tissue; host or cells: living animal, brain CB1 receptors; conditions: iv at 10 mg/kg
Source text: as §1

[3] = Measurement (1): quantification of compound in brain and plasma by LC-MS/MS; format: in vivo; conditions: iv at 3 mg/kg, according to measurement (1), mouse, read-out: Ratio: Amount present in the brain/Amount present in the plasma
Source text: as §1

[4] = biological target: T2, CB1 receptors present at the periphery (Mus musculus, UniProt P47746); experiment: blocking of the inhibitory effect of CP55940 on gastrointestinal transit; format: in vivo; conditions: per os at 10 mg/kg, mice
T2 construct: from tissue; host or cells: living mouse, peripheral (gastrointestinal) CB1 receptors
T2 sequence (P47746 whole entry): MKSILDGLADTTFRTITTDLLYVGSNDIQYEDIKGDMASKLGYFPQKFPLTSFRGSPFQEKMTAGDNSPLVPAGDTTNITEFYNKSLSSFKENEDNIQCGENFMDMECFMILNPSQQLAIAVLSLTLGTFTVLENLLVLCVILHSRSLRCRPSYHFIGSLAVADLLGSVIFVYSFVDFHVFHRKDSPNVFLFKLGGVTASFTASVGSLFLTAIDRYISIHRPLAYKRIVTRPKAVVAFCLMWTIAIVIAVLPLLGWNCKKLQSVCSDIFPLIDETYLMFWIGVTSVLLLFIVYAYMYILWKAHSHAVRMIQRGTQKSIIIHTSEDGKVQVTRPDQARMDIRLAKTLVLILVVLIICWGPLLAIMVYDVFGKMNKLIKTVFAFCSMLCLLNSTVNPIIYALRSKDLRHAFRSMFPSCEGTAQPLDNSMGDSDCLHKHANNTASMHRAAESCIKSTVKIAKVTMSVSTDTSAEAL

T1 sequence (P47746 whole entry): as above

| inhibition at 10 mg/kg [1] [%] | % reversion of the hypothermic effect of CP55940 [2] [%] | Kp [3] | % reversion of the effect of CP55940 on GI transit [4] [%] | SMILES |
| --- | --- | --- | --- | --- |
| 25 | 64 | – | – | Cn1c(C(=O)N2CCC(NCc3cccc(F)c3)(C(N)=O)CC2)cc(-c2ccc(Cl)cc2Cl)c1-c1ccc(OCCCO)cc1 [Compound 11, 1-[4-(2,4-dichlorophenyl)-5-[4-(3-hydroxypropoxy)phenyl]-1-methyl-1H-pyrrole-2-carbonyl]-4-(3-fluorobenzylamino)piperidine-4-carboxamide] |
| 8 | 3 | 0.05 | 76 | Cn1c(C(=O)N2CCC(C(N)=O)(c3ccccc3)CC2)cc(-c2ccc(Cl)cc2Cl)c1-c1ccc(OCC(N)=O)cc1 [Compound 16, 1-[5-(4-carbamoylmethoxy)phenyl-4-(2,4-dichlorophenyl)-1-methyl-1H-pyrrole-2-carbonyl]-4-phenylpiperidine-4-carboxamide] |
| 1 | 20 | – | 100 | Cn1c(C(=O)N2CCC(NCc3ccc(F)cc3)(C(N)=O)CC2)cc(-c2ccccc2Cl)c1-c1ccc(OCCCO)cc1 [Compound 24, 1-[4-(2-chlorophenyl)-5-[4-(3-hydroxypropoxy)phenyl]-1-methyl-1H-pyrrole-2-carbonyl]-4-(4-fluorobenzylamino)piperidine-4-carboxamide] |
